For 20 compounds, IC50 results are on record in patent US20240051968A1, “METHODS FOR TREATING SPINOCEREBELLAR ATAXIA TYPE 3” (PTC Therapeutics, Inc., priority 2021, published 2024).

Test [1] deals with Total ATXN3 (tATXN3) protein. As to the kind of experiment: Endogenous Total ATXN3 (tATXN3) Protein Assay (MSD immunoassay of cell lysates). Type of test: cell-based. As to conditions: cells incubated with compound 48 h; 7-point concentration curve; MSD detection in cell lysate. The protocol: Endogenous Total ATXN3 (tATXN3) Protein Assay
Meso Scale Discovery (MSD) 96-well or 384-well plates were coated overnight at 4° C. with Ataxin 3 mouse monoclonal antibody (Invitrogen, MA3-082) at a concentration of 0.5 μg/mL in PBS (30 μL per well). Plates were then washed three times with 300 μL wash buffer (0.05% TWEEN®-20, polyethylene glycol sorbitan monolaurate, in PBS) and blocked (Meso Scale Diagnostics, R93BA-1; 5% BSA in PBS) for 2 h at room temperature with rotational shaking and then washed three times with wash buffer.
Test compounds were serially diluted 3.16-fold in 100% DMSO to generate a 7-point concentration curve. Aliquots of 0.5 μL of diluted compounds were transferred to a 96-well flat bottom plate by a liquid handler. An aliquot of 0.5 μL DMSO was also transferred to separate wells and used as controls. Duplicate samples were set up for each compound concentration and for the DMSO control.
Cells were thawed and incubated in cell culture media (DMEM, 10% FBS, and 1% antibiotic cocktail) for 72 h. Cells were trypsinized, counted, and re-suspended to a concentration of 100,000 cells/mL in cell culture media. A 100 μL aliquot of the cell suspensions were plated at 10,000 cells per well in the compound containing 96 well microtiter plate and incubated for in a cell culture incubator (37° C., 5% CO2, 100% relative humidity). After 48 h, the medium was removed and 50-100 μL of lysis buffer (Meso Scale Diagnostics, R60TX-2) containing 1× halt protease inhibitor cocktail of (Thermo Scientific, Halt™ Protease Inhibitor Cocktail, 78430) per well was added to cells to provide a “cell lysate”. The plate was placed on a shaker at 4° C. for 30 minutes, then stored at −80° C.
Cell lysate samples (25 μL) were transferred to the antibody-coated MSD plate and incubated overnight at 4° C. After removal of the lysates, the plate was washed three times with wash buffer, and 25 μL of Ataxin 3 recombinant rabbit monoclonal antibody (Invitrogen, #702788) secondary antibody (diluted to 0.25 μg/mL in 0.05% TWEEN®-20 in blocking buffer) was added to each well and incubated with shaking for 1-2 h at room temperature. Following incubation with the secondary antibody, the wells were rinsed with wash buffer and then […] Anti Rabbit Antibody Goat SULFO-TAG Labeled (Meso Scale Diagnostics, R32AB-1) detecting antibody (diluted to 0.25 μg/mL in 0.05% TWEEN®-20 in blocking buffer) was added to each well and incubated with shaking for 1 h at room temperature. After rinsing three times with wash buffer, 150 μL of Read Buffer T with surfactant (tris-based buffer containing tripropylamine, Meso Scale Diagnostics, R92TC-1) were added to each empty well, and the plate was imaged on a SI 6000 imager (MSD) according to manufacturers' instructions provided for 96- or 384-well plates.

The next test deals with ATXN3 pre-mRNA. As to the kind of experiment: RT-qPCR Assay to Quantify Exon 4 Skipping in ATXN3 pre-mRNA in Cells. In kind it is cell-based. As to conditions: cells incubated with compound 24 h, 7-point concentration curve, GAPDH control. The protocol: RT-qPCR Assay to Quantify Exon 4 Skipping in ATXN3 pre-mRNA in Cells Test compounds were serially diluted 3.16-fold in 100% DMSO to generate a 7-point concentration curve. Aliquots of 0.5 μL of diluted compounds were transferred to a 96-well flat bottom plate by a liquid handler. An aliquot of 0.5 μL DMSO was also transferred to separate wells and used as controls. Duplicate samples were set up for each compound concentration and for the DMSO control.
Cells were thawed and incubated in cell culture media (DMEM, 10% FBS, and 1% antibiotic cocktail) for 72 h. Cells were trypsinized, counted, and re-suspended to a concentration of 100,000 cells/mL in cell culture media. A 100 μL aliquot of the cell suspensions were plated at 10,000 cells per well in the compound containing 96 well microtiter plate and incubated for in a cell culture incubator (37° C., 5% CO2, 100% relative humidity).
After 24 h, media was aspirated from the cells and 50 μL of the RCL2 lysis buffer (10 mM Tris-HCL pH 7.4, 150 mM NaCl, 0.33% IGEPAL® CA-630) was added to each well and incubated at room temperature for 1 min. Chilled nuclease free water (50 μL per well) was added and the plates were immediately transferred on ice. After 1 min on ice, plates were frozen at −80° C. overnight.
Preparation of RT-qPCR Reaction Mixture:
An aliquot of 2 μL/well of the cell lysates was transferred using the liquid handler to the Armadillo 384-Well PCR plate containing 8 μL/well of the RT-qPCR reaction mixture that was prepared as detailed above. The plates were then sealed with MicroAmp™ Optical Adhesive Film followed by spinning down for 1 min and placed in the CFX384 thermocycler (BioRad).
The RT-qPCR was carried out at the following temperatures for the indicated time: • Step 1: 48° C. (30 min) • Step 2: 95° C. (10 min) • Step 3: 95° C. (15 sec) • Step 4: 60° C. (1 min); then, repeated Steps 3 and 4 for a total of 40 cycles.
The percent exon 4 skipping was calculated for each dose of compound treatment using Equations 1 and 2.
Data were fit to a dose response curve and the IC50 was interpolated using XLfit® statistical and curve fitting package.
An IC50 value between >2.0 μM and ≤3.0 μM is indicated by one star (*). […] IC50 value between >0.5 μM and ≤1.0 μM is indicated by four stars (****). An IC50 value ≤0.5 μM is indicated by five stars (*****).

The pIC50 is the negative decadic logarithm of the IC50, by convention in mol/L.

pIC50: −log10 of the molar value.

With `C[C@H](N)Cc1sc2c(NCc3ccco3)cc(Cl)nc2c1C#N` [Cpd 109, 2-[(2S)-2-aminopropyl]-5-chloro-7-{[(furan-2-yl)methyl]amino}thieno[3,2-b]pyridine-3-carbonitrile], the pIC50 (in test [1]; in the test on ATXN3 pre-mRNA) was at least 6.30 throughout.
In the case of `CS(=O)(=O)C[C@H](N)Cc1sc2c(NCc3ccco3)cc(Cl)nc2c1Cl` [Cpd 113, 2-[(2R)-2-amino-3-(methanesulfonyl)propyl]-3,5-dichloro-N-[(furan-2-yl)methyl]thieno[3,2-b]pyridin-7-amine], the pIC50 (in test [1]; with ATXN3 pre-mRNA) was at least 6.30 throughout.
As for `CSC[C@H](N)Cc1sc2c(NCc3ccco3)cc(Cl)nc2c1Cl` [Cpd 114, 2-[(2R)-2-amino-3-(methylsulfanyl)propyl]-3,5-dichloro-N-[(furan-2-yl)methyl]thieno[3,2-b]pyridin-7-amine], the pIC50 (in test [1]; in the test with ATXN3 pre-mRNA) was at least 6.30 in each case.
`Cc1c(C[C@@H](N)C(=O)O)sc2c(NCc3ccco3)cc(Cl)nc12` [Cpd 115, 3-(5-chloro-7-{[(furan-2-yl)methyl]amino}-3-methylthieno[3,2-b]pyridin-2-yl)-D-alanine]: the pIC50 (in test [1]; with ATXN3 pre-mRNA) was at least 6.30 each time.
Turning to `Cc1c(C[C@@H](N)C(=O)N(C)C)sc2c(NCc3ccco3)cc(Cl)nc12` [Cpd 116, 3-(5-chloro-7-{[(furan-2-yl)methyl]amino}-3-methylthieno[3,2-b]pyridin-2-yl)-N,N-dimethyl-D-alaninamide], the pIC50 (in test [1]; in the test with ATXN3 pre-mRNA) was at least 6.30 each time.
As for `CS(=O)(=O)C[C@H](N)Cc1sc2c(NCc3ccco3)cc(Cl)nc2c1Br` [Cpd 117, 2-[(2R)-2-amino-3-(methanesulfonyl)propyl]-3-bromo-5-chloro-N-[(furan-2-yl)methyl]thieno[3,2-b]pyridin-7-amine], the pIC50 (in test [1]; in the test on ATXN3 pre-mRNA) was at least 6.30 in each case.
For the compound `CSC[C@H](N)Cc1sc2c(NCc3ccco3)cc(Cl)nc2c1Br` [Cpd 118, 2-[(2R)-2-amino-3-(methylsulfanyl)propyl]-3-bromo-5-chloro-N-[(furan-2-yl)methyl]thieno[3,2-b]pyridin-7-amine], the pIC50 (in test [1]; in the test with ATXN3 pre-mRNA) was at least 6.30 each time.
For `N[C@H](Cc1sc2c(NCc3ccco3)cc(Cl)nc2c1Cl)C(=O)Nc1ccccc1F` [Cpd 120, 3-(3,5-dichloro-7-{[(furan-2-yl)methyl]amino}thieno[3,2-b]pyridin-2-yl)-N-(2-fluorophenyl)-D-alaninamide], the results for the pIC50 (in test [1]; with ATXN3 pre-mRNA) were 6.00 to 6.30 and at least 6.30, respectively.
On to `N[C@H](Cc1sc2c(NCc3ccco3)cc(Cl)nc2c1Cl)C(=O)O` [Cpd 121, 3-(3,5-dichloro-7-{[(furan-2-yl)methyl]amino}thieno[3,2-b]pyridin-2-yl)-D-alanine], for which the figures for the pIC50 (in test [1]; in the test with ATXN3 pre-mRNA) were 6.00 to 6.30 and at least 6.30, respectively.
On the same counts, the results for `N[C@H](Cc1sc2c(NCc3ccco3)cc(Cl)nc2c1Cl)C(=O)Nc1ccccc1` [Cpd 122, 3-(3,5-dichloro-7-{[(furan-2-yl)methyl]amino}thieno[3,2-b]pyridin-2-yl)-N-phenyl-D-alaninamide] are at least 6.30 and at least 6.30.
On the same counts, the results for `C#C[C@H](N)Cc1sc2c(NCc3ccco3)cc(Cl)nc2c1C` [Cpd 123, 2-[(2R)-2-aminobut-3-yn-1-yl]-3-methyl-5-chloro-N-[(furan-2-yl)methyl]thieno[3,2-b]pyridin-7-amine] are at least 6.30 and at least 6.30.
On the same counts, the results for `C[C@H](F)[C@H](N)Cc1sc2c(NCc3nccs3)cc(Cl)nc2c1Br` [Cpd 125, 2-[(2R,3S)-2-amino-3-fluorobutyl]-3-bromo-5-chloro-N-[(1,3-thiazol-2-yl)methyl]thieno[3,2-b]pyridin-7-amine] are at least 6.30 and at least 6.30.
Consider `Cc1c(C[C@@H](N)[C@H](C)F)sc2c(NCc3cccs3)cc(Cl)nc12` [Cpd 126, 2-[(2R,3S)-2-amino-3-fluorobutyl]-5-chloro-3-methyl-N-[(thiophen-2-yl)methyl]thieno[3,2-b]pyridin-7-amine], for which the pIC50 (in test [1]; in the test on ATXN3 pre-mRNA) was at least 6.30 throughout.
Consider `C[C@H](N)C(O)c1sc2c(NCc3cccs3)cc(Cl)nc2c1Cl` (stereo partly drawn) [Cpd 127, (2S)-2-amino-1-(3,5-dichloro-7-{[(thiophen-2-yl)methyl]amino}thieno[3,2-b]pyridin-2-yl)propan-1-ol], for which the pIC50 (in test [1]; in the test with ATXN3 pre-mRNA) was at least 6.30 each time.
As for `Cc1c(C[C@@H](N)[C@H](C)F)sc2c(NCc3nccs3)cc(Cl)nc12` [Cpd 128, 2-[(2R,3S)-2-amino-3-fluorobutyl]-5-chloro-3-methyl-N-[(1,3-thiazol-2-yl)methyl]thieno[3,2-b]pyridin-7-amine], the pIC50 (in test [1]; with ATXN3 pre-mRNA) was at least 6.30 each time.
For `C[C@H](N)C(F)c1sc2c(NCc3cccs3)cc(Cl)nc2c1Cl` (stereo partly drawn) [Cpd 130, 2-[(2S)-2-amino-1-fluoropropyl]-3,5-dichloro-N-[(thiophen-2-yl)methyl]thieno[3,2-b]pyridin-7-amine], the pIC50 (in test [1]; with ATXN3 pre-mRNA) was at least 6.30 throughout.
Turning to `C[C@H](N)C(F)(F)c1sc2c(NCc3cccs3)cc(Cl)nc2c1Cl` [Cpd 132, 2-[(2S)-2-amino-1,1-difluoropropyl]-3,5-dichloro-N-[(thiophen-2-yl)methyl]thieno[3,2-b]pyridin-7-amine], the values for the pIC50 (in test [1]; in the test on ATXN3 pre-mRNA) were 6.00 to 6.30 and at least 6.30, respectively.
On the same counts, the results for `Cc1c(C[C@@H](N)C(=O)Nc2cnccn2)sc2c(NCc3ccco3)cc(Cl)nc12` [Cpd 135, 3-(5-chloro-7-{[(furan-2-yl)methyl]amino}-3-methylthieno[3,2-b]pyridin-2-yl)-N-pyrazin-2-yl-D-alaninamide] are at least 6.30 and at least 6.30.
On the same counts, the results for `Cc1c(C[C@@H](N)C(=O)Nc2ccncc2)sc2c(NCc3ccco3)cc(Cl)nc12` [Cpd 140, 3-(5-chloro-7-{[(furan-2-yl)methyl]amino}-3-methylthieno[3,2-b]pyridin-2-yl)-N-pyridin-4-yl-D-alaninamide] are at least 6.30 and at least 6.30.
Consider `Cc1c(C[C@@H](N)C(=O)N(C)c2ccccc2)sc2c(NCc3ccco3)cc(Cl)nc12` [Cpd 141, 3-(5-chloro-7-{[(furan-2-yl)methyl]amino}-3-methylthieno[3,2-b]pyridin-2-yl)-N-methyl-N-phenyl-D-alaninamide], for which the pIC50 (in test [1]; with ATXN3 pre-mRNA) was 5.82 to 6.00 in each case.
